{"source": "patent US20230301981A1", "about": "“TLR7/8 ANTAGONISTS AND USES THEREOF” (Merck Patent GmbH, priority 2020, published 2023)", "test_system": "complex primary human cell systems", "test": "BioMAP Diversity PLUS phenotypic panel", "assay_type": "cell-based", "conditions": "hydroxychloroquine at 33 µM versus Pyronaridine at 3.3 µM", "protocol": "Pyronaridine was profiled in the BioMAP® Diversity PLUS (BioSeek LLC, South San Francisco, CA) panel comprised of a well characterized set of complex primary human cell systems at 10, 3.3, 1.1, and 0.3 µM. Pyronaridine was tested across 12 BioMAP® Systems containing early passage primary human cells cultured alone or as cocultures and stimulated with various proinflammatory or immunomodulatory stimuli. […] A BioMAP activity profile was generated based on the levels of various readout parameters including cytokines or growth factors, expression of surface molecules, and cell proliferation. […]\nDifferentiating biomarkers are defined when one profile has a readout outside of the significance envelope with an effect size > 20% (|log10 ratio| > 0.1), and the readout for the other profile is either inside the envelope or in the opposite direction."}
{"smiles": "CCN(CCO)CCCC(C)Nc1ccnc2cc(Cl)ccc12", "note": "(stereo not shown) [HYDROXY-CHLOROQUINE HCQ, hydroxychloroquine]", "values": [{"measurement": "BioMAP Diversity PLUS profile, overlay comparison", "value": "noticeable similar pattern"}]}
